In patent publication US8816065B2, “Pharmaceutical or cosmetic composition containing nicotinic acid adenine dinucleotide phosphate or derivative thereof” (Damy Chemical Co., Ltd., priority 2010, dated 2014):

Tests used:
[1] = tested on: involucrin, keratin 1, and keratin 10 in primarily cultured epidermal keratinocyte neonatal; assay: Expression of keratinocyte differentiation markers by western blotting; format: cell-based, human
Method: An effect of NAADP on promoting cell differentiation was tested by measuring the expression of differentiation markers (involucrin, keratin 1, and keratin 10) generated during the differentiation of the keratinocytes by using a western blotting method.
Primarily cultured epidermal keratinocyte neonatal was put into a culture flask and attached to the bottom thereof, and then cultured for 5 days until the cells grew to cover about 70% to 80% of an area of the bottom by adding NAADP diluted for each concentration and retinol acid as a control group into a culture medium. The cells were harvested and cleaned with phosphate buffered saline (PBS). Next, precipitates obtained by adding 1 ml of a 10 mM tris-HCl (pH 7.4) buffer solution containing 2% sodium dodecyl sulfate (SDS) and 20 mM dithiothreitol (DTT) and being subjected to sonication, boiling, and centrifugation were again suspended in 1 ml of PBS. A content of protein in the suspension was measured and used as a criterion during the evaluation of a degree of cell differentiation. The results of tests performed by using a group treating the epidermal keratinocyte neonatal (5×10^5 cells) with retinol acid (1 μM) as a positive control group and adding each NAADP having different concentration (10 pM to 10 μM) to a low calcium concentration are presented in the following FIG. 2.

[2] = tested on: keratin 1 and keratin 10 in outer skin of hairless mice; assay: Induction of keratinocyte differentiation in hairless mouse skin after topical application (keratin 1/keratin 10 immunostaining); format: in vivo
Method: Hairless mice (SPF/VAF Crl:SKH 1-hr) used in the present tests were purchased from OrientBio (Seongnam, Korea). NAADP, an experiment material of the present invention, used was a product of Sigma-Aldrich Corporation.
Test materials were prepared by dissolving NAADP for each concentration in a solution, in which 1% dimethyl sulfoxide (DMSO) was added to a phosphate buffer solution, and tests were performed by using a method of applying the test materials on right and left portions of the back of a 6-week-old mouse with cotton swabs. The test materials were applied 5 times for each concentration and the applications were performed twice a day at 9:00 a.m. and 7:00 p.m. Animals having the test materials applied for one week were sacrificed by cervical dislocation, and the skin was dissected to prepare a size of 1 cm×1 cm and was then fixed in a 10% formalin solution over a night. A paraffin block was prepared from the fixed tissues to prepare 5 micrometer slices and the slices were dyed with an antibody (Santa Cruz #SC53251) simultaneously identifying keratin 1 and keratin 10 at a dilution ratio of 1:100. Anti-mouse IgG (invitrogen) combined with Alexa 488 was used as a secondary antibody.
A solution, in which 1% DMSO was added to a phosphate buffer solution, was used as a control group and solutions prepared by diluting the solution used as the control group with NAADP in various concentrations were used as a test group.

[3] = tested on: Epidermal keratinocyte neonatal (NHEK-Np); assay: Increase in intracellular calcium in cultured keratinocytes (fluo-3 AM, confocal microscopy); format: cell-based, human
Method: In the present example, an efficacy in inducing an increase in intracellular calcium was evaluated when cultured keratinocytes were treated with NAADP in order to confirm an effect of recovering a skin barrier in the composition of the present invention.
Epidermal keratinocyte neonatal (NHEK-Np, CC-2507, Lonza Co. Ltd.) was treated with fluo-3 AM (Molecular Probe, USA), an intracellular calcium marker, for 30 minutes in a CO2 incubator and then washed with a KBM (Keratinocyte Basal Media, KBM-2, Lonza Co. Ltd.) medium three times. Measurement of intracellular calcium was performed in the KBM medium and an increase in intracellular calcium due to NAADP was observed. For the measurement of intracellular calcium, a concentration of calcium was calculated through the collection of images at 530 nm by using a confocal microscopy (Nikon, Japan) equipped with a laser source having an excitation wavelength of 488 nm and an emission wavelength of 530 nm Amounts of changes in calcium measured when epidermal keratinocyte neonatal (5×10^5 cells) was treated with 0.1 nM, 1 nM, 10 nM, 100 nM, 1000 nM of NAADP are illustrated in FIG. 1, respectively.

[4] = in vitro, NAADP having a high concentration

Substance: nicotinic acid adenine dinucleotide phosphate [NAADP]
- expression of differentiation markers (involucrin, keratin 1, keratin 10) ([1]; 10 pM to 10 μM of NAADP, low calcium concentration, cultured 5 days, FIG. 2): differentiation markers were expressed
- effect on keratin 1 and keratin 10 relative to the other marker ([1]; 10 pM to 10 μM of NAADP, FIG. 2): better effects
- expression of the markers at high concentration of NAADP [1, 4]: decreased
- concentration dependence of keratin 1 and keratin 10 increase in vivo ([2]; hairless mouse): increased by depending on the concentration of NAADP
- concentration at which an increase in the expression level of the differentiation marker appeared ([2]; twice a day for one week): ≥ 100 nM
- expression levels of keratin 1 and keratin 10 in outer skin versus control group ([2]; twice a day for one week, in PBS with 1% DMSO, FIG. 3): increased
- intracellular calcium at high concentration of NAADP [3, 4]: increased
- movement of intracellular calcium ([3]; treatment with 1 nM to 100 nM of NAADP, 5×10^5 cells, FIG. 1): induced
